This note sets out measurements from patent US6844342B2, “Heterocyclic substituted 2-methyl-benzimidazole antiviral agents” (Bristol-Myers Squibb Company, priority 2000, dated 2005).

Structures are written as SMILES.

The assay concerns respiratory syncytial virus Long strain. Kind of assay: Antiviral activity against respiratory syncytial virus in HEp-2 cells (MTT cell protection). The format is cell-based. Here is the method: The antiviral activity of these compounds against respiratory syncytial virus was determined in HEp-2 (ATCC CCL 23) cells that were seeded in 96 well microtiter plates at 1.5×10^4 cells/100 μL/well in DMEM (Dulbecco's Modified Eagle's Medium) supplemented with penicillin, streptomycin, glutamine, and 10% fetal bovine serum. The cells were incubated overnight at 37° C., the culture medium was removed, and cells were infected (100 μL volume in medium containing 2% fetal bovine serum) with respiratory syncytial virus Long strain at 5000 plaque forming units/mL. The compounds, 100 μL at appropriate dilution, were added to the cells 1 hour post infection. After incubation for 4 days at 37° C., the plates were stained with MTT solution (3-[4,5-dimethlythiazol-2-yl]-2,5-diphenyltetrazolium bromide) and incubated for 4 hours at 37° C. The media was aspirated from the cells and 100 μL/well of acidified isopropanol (per liter: 900 mL isopropanol, 100 mL Triton X100, and 4 mL conc. HCl) was added. Plates were incubated for 15 minutes at room temperature with shaking, and an optical density (OD 540) reading at 540 nanometer (nm) was obtained. The optical density reading is proportional to the number of viable cells. The increase in the number of viable cells reflects the protective, antiviral activity of the compound. […]

Take `NC(=O)c1ncn([C@@H]2O[C@H](CO)[C@@H](O)[C@H]2O)n1` [Ribavirin]: for the setting “at 2.5 μg/mL (corresponding to 10.2 μM), HEp-2 cells, RSV Long strain”, the cell protection is listed as 100%. Moreover, where the note is “human respiratory syncytial virus, HEp-2 cells infected with RSV Long strain, compound added 1 hour post infection, 4 days at 37° C., read-out: EC50 (concentration that produces 50% cell protection)”, the EC50 is 3000 nM.
